Data as given in patent US9193984B2, “Method for detecting interactions between two and more biological macromolecules” (Korea Basic Science Institute, priority 2008, dated 2015).

Target: T1, first construct (TMD-mRFP) in CHO-k1 cells (Homo sapiens, UniProt Q05655, K378R/Y313F)
T1 construct: expressed in transfected cells; host or cells: CHO-k1
Test: Translocation of first construct (TMD-mRFP) toward the cell membrane depending on PMA concentration
Assay type: cell-based, Cricetulus griseus
Excerpt: In order to optimize the translocation characteristic of the translocation module, the first construct vector (pTMD-mRFP-C3) shown in FIG. 5 was used to determine the optimum concentration of PMA (phorbol-12-myristate-13-acetate), which was used as an external stimulation. Detailed experimental procedures were the same as in FIG. 5.
A cover slip containing the cells in which the first construct and second construct vectors had been introduced was fixed to a perfusion chamber and mounted on the object stage of a confocal laser fluorescence microscope (Carl Zeiss LSM510). Images of the construct vectors were taken before and after external stimulation (treatment with 1 μM PMA).
Translocation efficiency of the first construct using the pTMD-mRFP-C3 vector depending on the concentration of external stimulant PMA was measured as follows. The expression vector of the first construct was transformed into CHO-k1 cells and overexpressed. After 18 hours of culturing, PMA was treated at 1, 5, 10, 20, 40, 50, 80 and 100 nM and 1 and 5 μM.

T1 sequence (Q05655 whole entry Y313F/K378R): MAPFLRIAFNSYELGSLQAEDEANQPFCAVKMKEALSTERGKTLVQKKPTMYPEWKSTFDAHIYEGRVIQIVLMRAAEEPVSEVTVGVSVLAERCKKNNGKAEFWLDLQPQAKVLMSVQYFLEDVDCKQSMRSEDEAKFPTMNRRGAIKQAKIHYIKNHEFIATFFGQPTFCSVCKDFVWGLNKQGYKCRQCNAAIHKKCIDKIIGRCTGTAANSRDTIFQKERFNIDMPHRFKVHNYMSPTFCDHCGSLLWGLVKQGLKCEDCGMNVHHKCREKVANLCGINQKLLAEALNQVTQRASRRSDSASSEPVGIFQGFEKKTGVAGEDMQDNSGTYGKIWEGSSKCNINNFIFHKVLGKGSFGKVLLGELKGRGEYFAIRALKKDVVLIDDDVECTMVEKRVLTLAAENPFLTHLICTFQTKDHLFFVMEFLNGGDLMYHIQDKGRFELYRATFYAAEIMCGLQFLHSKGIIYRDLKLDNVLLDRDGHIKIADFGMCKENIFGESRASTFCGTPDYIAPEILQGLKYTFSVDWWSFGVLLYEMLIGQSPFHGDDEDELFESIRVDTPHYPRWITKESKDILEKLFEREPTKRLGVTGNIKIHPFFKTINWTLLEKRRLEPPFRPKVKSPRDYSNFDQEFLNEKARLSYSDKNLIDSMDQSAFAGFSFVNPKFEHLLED

## CCCCCCCCCCCCCC(=O)O[C@@H]1[C@@H](C)[C@@]2(O)[C@@H](C=C(CO)C[C@]3(O)C(=O)C(C)=C[C@@H]23)[C@@H]2C(C)(C)[C@]12OC(C)=O [PMA, phorbol-12-myristate-13-acetate]
PMA 50 nM, CHO-k1, 200 cells counted
  cells with translocation of first construct toward the cell membrane: ≥ 90%
PMA 100 nM or higher
  movement of red fluorescence toward the cell membrane: increased
